From patent US9040500B2, “Method for treating hematopoietic neoplasms” (priority 2007, dated 2015)

Assays:
subcutaneous HL60 tumors [1] = assay: Subcutaneous in vivo leukemia model (Example 1); set-up: species or system athymic nu/nu mice; conditions: for tumor volume / tumor growth versus control (PBS): CA1dP or CA4P 75 mg/kg/inj, Ara-C 20 mg/kg/inj, HL60 s.c. in nu/nu mice
Method: HL60 (1×10^7 cells in 0.1 ml) were injected subcutaneously into the dorsa of 4-6 week old athymic nu/nu mice (Southern Research Institute). When palpable tumors were evident (average tumor volume 100 mm^3; i.e. approximately 12 days after inoculation), 6 experimental groups of mice were randomized, each with 10 animals. Treatment was initiated according to the following regimens:
Tumor volume was measured three times a week until the endpoint was reached (tumor volume >3000 mm^3), or for 90 days post-treatment.

subcutaneous HL60 tumors [2] = assay: Dose response activity in subcutaneous HL60 model (Example 2); type: in vivo, athymic nu/nu mice
Method: HL60 (1×10^7 cells in 0.1 ml) were injected subcutaneously into the dorsa of 4-6 week old athymic nu/nu mice (Southern Research Institute). When palpable tumors were evident (average tumor volume 100 mm^3; i.e. approximately 12 days after inoculation), ten experimental groups of mice were randomized, each with 10 animals. Treatment was initiated according to the following regimens:
Tumor volume was measured three times per week.

leukemic cells = assay: Leukemic cell proliferation and cell death in vitro; type: cell-based; conditions: low and non-toxic doses
[3] = test system: intracellular reactive oxygen species (ROS); assay: Intracellular reactive oxygen species in leukemic cells; type: cell-based
[4] = test system: subcutaneous solid tumors; conditions: concentrations well below the maximum tolerated dose; cited from earlier work
tubulin = conditions: cited from earlier work
[5] = CA1dP 75 mg/kg/inj with addition of Ara-C 20 mg/kg/inj
[6] = subcutaneous mouse models of AML, single agent (introduction summary)
[7] = CA1dP combined with araC 20 mg/kg/inj

SMILES: COc1cc(/C=C\c2ccc(OC)c(OP(=O)(O)O)c2OP(=O)(O)O)cc(OC)c1OC [CA1dP, combretastatin A-1 diphosphate]
- complete regressions out of ten treated mice (subcutaneous HL60 tumors [1]; [5]): six
- tumor volume versus CA1dP alone (subcutaneous HL60 tumors [1]; [5]): further decreased tumor volumes
- tumor load with co-administered chemotherapeutic agent (subcutaneous HL60 tumors [1]; co-administration of AraC (introduction summary)): decreases tumor load even further
- complete tumor regressions in a population of ten treated mice (subcutaneous HL60 tumors [1]; single agent, 75 mg/kg/inj Q7D x 2): five
- tumor volume / tumor growth versus control (PBS) (subcutaneous HL60 tumors [1]; single agent): substantial decreases in tumor volume
- survival of treated mice (subcutaneous HL60 tumors [1]; [6]): significantly prolonged survival
- tumor load of treated mice (subcutaneous HL60 tumors [1]; [6]): significantly decreased tumor load
- decrease in tumor volume relative to dose (subcutaneous HL60 tumors [2]; CA1dP 2.5, 10, 25, 75 mg/kg/inj, day 3 and 10): clear dose response relationship
- duration of tumor growth inhibition, combination versus CA1dP alone (subcutaneous HL60 tumors [2]; [7]): longer growth inhibition
- number of complete responses, combination versus CA1dP alone (subcutaneous HL60 tumors [2]; [7]): not significantly altered
- anti-tumor activity (subcutaneous HL60 tumors [2]; doses of CA1dP above 2.5 mg/kg): significant anti-tumor activity
- leukemic cell proliferation in vitro (leukemic cells): inhibit leukemic cell proliferation in vitro
- mitotic arrest and cell death of leukemic cells (leukemic cells): induce mitotic arrest and cell death
- intracellular reactive oxygen species (ROS) [3]: rapidly increases intracellular reactive oxygen species
- microtubule depolymerization and vascular shutdown causing tumor necrosis [4]: induces rapid microtubule depolymerization and vascular shutdown

SMILES: COc1ccc(/C=C\c2cc(OC)c(OC)c(OC)c2)c(O)c1O [Combretastatin A-1]
- affinity for tubulin at the colchicine site, relative to colchicine (tubulin): higher affinity

SMILES: Nc1ccn([C@@H]2O[C@H](CO)[C@@H](O)[C@@H]2O)c(=O)n1 [Ara-C, cytosine arabinoside, reference compound]
- tumor volume / tumor growth versus control (PBS) (subcutaneous HL60 tumors [1]; single agent): little improvement

SMILES: COc1ccc(/C=C\c2cc(OC)c(OC)c(OC)c2)cc1OP(=O)(O)O [CA4P, combretastatin A-4 phosphate, reference compound]
- life span versus controls (subcutaneous HL60 tumors [1]; single agent, 75 mg/kg/inj): extended life span
- tumor volume / tumor growth versus control (PBS) (subcutaneous HL60 tumors [1]; single agent): delayed tumor growth
